Reference: US10280159B2 (AbbVie Deutschland GmbH & Co. KG, priority 2015, dated 2019)

How the values were obtained:
Format in all cases: cell-based
human S1PR5 = biological target: T1, human S1PR5 (Homo sapiens, UniProt Q9H228); test: Intracellular Ca2+ release (FLIPR) agonist potency, S1P5; conditions: recombinant CHO-K1 cells expressing human S1PR5, aequorin, Gq/i5; Calcium 5 FLIPR; read-out: S1P5 EC50 range
T1 construct: host or cells: CHO-K1
Method in brief: (§1)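 EC50 values reflect nonlinear fits of FLIPR fluorescence data, normalized to the phospho-fingolimod curve. Cells were CHO-K1 expressing the human receptor, aequorin and Gq/i5, cultured in F-12 Ham with 10% FBS.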

human S1PR1 = biological target: T2, human S1PR1 (Homo sapiens, UniProt P21453); test: Intracellular Ca2+ release (FLIPR) agonist potency, S1P1; conditions: recombinant CHO-K1 cells expressing human S1PR1, aequorin, Gq/i5; Calcium 5 FLIPR; read-out: S1P1 EC50
T2 construct: host or cells: CHO-K1
Method in brief: as §1

human S1PR4 = biological target: T3, human S1PR4 (Homo sapiens, UniProt O95977); test: Intracellular Ca2+ release (FLIPR) agonist potency, S1P4; conditions: recombinant CHO-K1 cells expressing human S1PR4, aequorin, Gq/i5; Calcium 5 FLIPR; read-out: S1P4 EC50
T3 construct: host or cells: CHO-K1
T3 sequence (O95977 1-384): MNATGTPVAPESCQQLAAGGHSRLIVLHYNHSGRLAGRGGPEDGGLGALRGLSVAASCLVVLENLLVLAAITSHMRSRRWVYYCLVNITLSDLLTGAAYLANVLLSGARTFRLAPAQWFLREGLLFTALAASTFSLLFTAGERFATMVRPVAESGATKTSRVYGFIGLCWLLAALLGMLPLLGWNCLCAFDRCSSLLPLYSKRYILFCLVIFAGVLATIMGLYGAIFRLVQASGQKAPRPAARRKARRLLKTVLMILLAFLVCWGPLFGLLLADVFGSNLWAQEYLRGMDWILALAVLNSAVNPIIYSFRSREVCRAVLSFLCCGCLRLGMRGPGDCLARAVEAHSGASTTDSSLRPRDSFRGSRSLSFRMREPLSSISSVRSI
Method in brief: as §1

T2 sequence (P21453 whole entry): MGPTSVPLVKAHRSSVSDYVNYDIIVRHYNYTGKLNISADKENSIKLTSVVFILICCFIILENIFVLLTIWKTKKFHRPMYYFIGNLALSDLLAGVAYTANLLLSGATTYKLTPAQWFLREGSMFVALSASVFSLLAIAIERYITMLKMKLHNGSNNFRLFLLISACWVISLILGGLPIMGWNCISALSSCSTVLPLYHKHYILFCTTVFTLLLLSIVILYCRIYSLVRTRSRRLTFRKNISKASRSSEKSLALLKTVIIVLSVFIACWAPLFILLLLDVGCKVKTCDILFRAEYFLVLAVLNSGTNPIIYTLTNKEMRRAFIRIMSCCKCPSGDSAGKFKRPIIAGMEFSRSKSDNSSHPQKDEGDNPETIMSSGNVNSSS
T1 sequence (Q9H228 whole entry): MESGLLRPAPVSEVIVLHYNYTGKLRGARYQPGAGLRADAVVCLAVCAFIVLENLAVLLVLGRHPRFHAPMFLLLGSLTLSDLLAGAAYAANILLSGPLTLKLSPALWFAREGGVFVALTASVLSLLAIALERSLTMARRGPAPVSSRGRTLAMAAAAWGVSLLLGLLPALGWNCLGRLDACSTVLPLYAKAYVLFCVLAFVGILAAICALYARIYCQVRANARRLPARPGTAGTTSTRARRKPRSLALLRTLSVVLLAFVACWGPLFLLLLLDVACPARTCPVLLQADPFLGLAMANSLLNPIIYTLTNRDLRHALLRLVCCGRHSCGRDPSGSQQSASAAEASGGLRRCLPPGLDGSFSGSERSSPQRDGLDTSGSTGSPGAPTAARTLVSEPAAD

SMILES	EC50 (human S1PR5) [µM]	EC50 (human S1PR1) [µM]	EC50 (human S1PR4) [µM]
CCc1cccc(Cl)c1COc1ccc2c(c1)CCC(N1CC(C(=O)N(C)OC)C1)C2 (stereo not drawn) [Compound 217, 1-[6-[(2-chloro-6-ethyl-phenyl)methoxy]tetralin-2-yl]-N-methoxy-N-methyl-azetidine-3-carboxamide]	0.1 to 1	> 1	> 1
O=C(O)C1CN(C2COc3cc(OCc4c(Cl)cccc4Cl)c(Br)cc3C2)C1 (stereo not drawn) [Compound 221, 1-[6-bromo-7-[(2,6-dichlorophenyl)methoxy]chroman-3-yl]azetidine-3-carboxylic acid]	0.01 to 0.1	> 1	> 1
Cc1cc2c(cc1OCc1c(Cl)cccc1Cl)OCC(N1CC(C(=O)O)C1)C2 (stereo not drawn) [Compound 222, 1-[7-[(2,6-dichlorophenyl)methoxy]-6-methyl-chroman-3-yl]azetidine-3-carboxylic acid]	0.01 to 0.1	> 1	> 1
O=C(O)C1CN(C2CCOc3cc(OCc4c(Cl)cccc4Cl)c(F)cc32)C1 (stereo not drawn) [Compound 223, 1-[7-[(2,6-dichlorophenyl)methoxy]-6-fluoro-chroman-4-yl]azetidine-3-carboxylic acid]	< 0.01	> 1	> 1
O=C(O)C1CN(C2COc3c(cccc3OCc3c(Cl)cccc3Cl)C2)C1 (stereo not drawn) [Compound 225, 1-[8-[(2,6-dichlorophenyl)methoxy]chroman-3-yl]azetidine-3-carboxylic acid]	1 to 10	> 1	> 1
O=C(O)C1CN(C2COc3cc(Oc4c(Cl)cccc4Cl)ccc3C2)C1 (stereo not drawn) [Compound 229, 1-[7-(2,6-dichlorophenoxy)chroman-3-yl]azetidine-3-carboxylic acid]	1 to 10	> 1	> 1
CCc1cccc(Cl)c1COc1ccc2c(c1)OCC(OCC(=O)O)C2 (stereo not drawn) [Compound 233, ((7-((2-chloro-6-ethylbenzyl)oxy)chroman-3-yl)oxy)acetic acid]	< 0.01	> 1	> 1
O=C(O)COC1COc2cc(OCc3c(F)ccc(Cl)c3F)ccc2C1 (stereo not drawn) [Compound 234, 2-((7-((3-chloro-2,6-difluorobenzyl)oxy)chroman-3-yl)oxy)acetic acid]	1 to 10	> 1	> 1

Next, values leading:

EC50 (human S1PR5) [µM]	EC50 (human S1PR1) [µM]	EC50 (human S1PR4) [µM]	SMILES
1 to 10	> 1	> 1	O=C(O)C1CN(C2COc3cc(OCCc4ccccc4)ccc3C2)C1 (stereo not drawn) [Compound 226, 1-(7-phenethyloxychroman-3-yl)azetidine-3-carboxylic acid]
1 to 10	> 1	> 1	O=C(O)C1CN(C2COc3cc(OCCc4ccccc4Cl)ccc3C2)C1 (stereo not drawn) [Compound 227, 1-[7-[2-(2-chlorophenyl)ethoxy]chroman-3-yl]azetidine-3-carboxylic acid]
1 to 10	> 1	> 1	O=C(O)C1CN(C2COc3cc(OCCc4ccc(Cl)cc4)ccc3C2)C1 (stereo not drawn) [Compound 228, 1-[7-[2-(4-chlorophenyl)ethoxy]chroman-3-yl]azetidine-3-carboxylic acid]
1 to 10	> 1	> 1	O=C(O)C1CN(C2COc3cc(OCC4CCC4)ccc3C2)C1 (stereo not drawn) [Compound 230, 1-[7-(cyclobutylmethoxy)chroman-3-yl]azetidine-3-carboxylic acid]
1 to 10	> 1	> 1	O=C(O)C1CN(C2COc3cc(OCC4CC4)ccc3C2)C1 (stereo not drawn) [Compound 231, 1-[7-(cyclopropylmethoxy)chroman-3-yl]azetidine-3-carboxylic acid]
< 0.01	> 1	> 1	O=C(O)CNC1COc2cc(-c3ccc(OCc4ccccc4)cc3)ccc2C1 (stereo not drawn) [Compound 237, 2-((7-(4-(benzyloxy)phenyl)chroman-3-yl)amino)acetic acid]
